Calls of active or inactive are those of the source.
Assays:
[1] = target: T1, Aminopeptidase N (Plasmodium falciparum FcB1/Columbia, UniProt O96935); test: P. falciparum M1AAP inhibitors, biochemical, fluorogenic H-Leu-NHMec substrate, 1536-well (AID 1445); design: species or system Plasmodium falciparum 3D7, 3D7
T1 sequence (O96935 whole entry): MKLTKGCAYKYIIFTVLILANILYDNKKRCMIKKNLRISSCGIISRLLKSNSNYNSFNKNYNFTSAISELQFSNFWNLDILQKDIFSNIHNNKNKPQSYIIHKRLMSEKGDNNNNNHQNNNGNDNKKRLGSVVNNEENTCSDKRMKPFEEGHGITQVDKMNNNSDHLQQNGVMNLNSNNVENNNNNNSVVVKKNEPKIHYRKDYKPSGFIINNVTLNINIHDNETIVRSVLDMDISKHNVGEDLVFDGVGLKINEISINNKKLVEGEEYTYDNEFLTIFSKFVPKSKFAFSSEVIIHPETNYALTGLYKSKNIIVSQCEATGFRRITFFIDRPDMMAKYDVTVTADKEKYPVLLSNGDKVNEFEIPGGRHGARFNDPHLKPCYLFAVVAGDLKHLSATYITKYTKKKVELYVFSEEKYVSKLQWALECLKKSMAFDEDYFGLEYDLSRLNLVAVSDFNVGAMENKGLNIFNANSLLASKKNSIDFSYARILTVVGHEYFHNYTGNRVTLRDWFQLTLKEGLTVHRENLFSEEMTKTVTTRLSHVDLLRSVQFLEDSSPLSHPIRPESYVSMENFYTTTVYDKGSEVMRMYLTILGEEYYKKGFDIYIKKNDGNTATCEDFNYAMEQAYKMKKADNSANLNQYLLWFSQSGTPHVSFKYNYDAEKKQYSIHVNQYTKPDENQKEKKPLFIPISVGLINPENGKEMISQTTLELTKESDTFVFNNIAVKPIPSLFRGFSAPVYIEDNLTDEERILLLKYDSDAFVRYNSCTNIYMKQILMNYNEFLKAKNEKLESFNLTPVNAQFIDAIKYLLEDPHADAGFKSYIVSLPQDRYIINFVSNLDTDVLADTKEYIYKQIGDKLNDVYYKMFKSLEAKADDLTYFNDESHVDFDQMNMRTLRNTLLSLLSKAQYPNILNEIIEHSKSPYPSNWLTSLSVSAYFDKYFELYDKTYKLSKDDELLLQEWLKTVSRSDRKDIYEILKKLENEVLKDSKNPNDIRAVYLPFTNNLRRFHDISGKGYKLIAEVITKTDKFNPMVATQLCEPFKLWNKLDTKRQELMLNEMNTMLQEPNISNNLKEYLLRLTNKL

[2] = target: Prothrombin (Homo sapiens, UniProt P00734); test: Thrombin 1536 HTS Dose Response Confirmation. [Related pubchem assays: 1046 (Thrombin 1536 HTS; hits were confirmed in this assay)]; type: functional
[3] = target: T2, Leucine aminopeptidase (Plasmodium falciparum 3D7, UniProt Q8IL11); test: P. falciparum M17LAP inhibitors, primary screen, biochemical, fluorogenic H-Leu-NHMec substrate, 1536-well (AID 1619); type: functional
T2 sequence (Q8IL11 whole entry): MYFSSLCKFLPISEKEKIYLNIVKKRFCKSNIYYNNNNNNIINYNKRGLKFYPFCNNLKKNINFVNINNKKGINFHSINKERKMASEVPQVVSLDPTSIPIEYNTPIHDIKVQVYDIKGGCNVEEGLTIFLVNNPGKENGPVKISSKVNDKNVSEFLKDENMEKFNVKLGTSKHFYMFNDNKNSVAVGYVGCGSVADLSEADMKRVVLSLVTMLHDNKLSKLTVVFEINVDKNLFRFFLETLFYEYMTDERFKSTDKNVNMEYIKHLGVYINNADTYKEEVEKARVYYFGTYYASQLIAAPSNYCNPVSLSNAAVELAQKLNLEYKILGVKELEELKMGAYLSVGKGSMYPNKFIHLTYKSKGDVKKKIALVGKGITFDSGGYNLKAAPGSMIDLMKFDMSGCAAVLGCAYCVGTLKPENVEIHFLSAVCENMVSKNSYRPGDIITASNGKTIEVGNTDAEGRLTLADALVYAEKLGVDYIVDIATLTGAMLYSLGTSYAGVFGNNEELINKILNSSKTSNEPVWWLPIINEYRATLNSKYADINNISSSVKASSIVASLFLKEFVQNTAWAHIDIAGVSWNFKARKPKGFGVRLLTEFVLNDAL

[4] = target: Voltage-dependent T-type calcium channel subunit alpha-1H (Homo sapiens, UniProt O95180); type: functional;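 note: channel activity triggered by adding a high calcium stimulation buffer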
[5] = target: T3, Short transient receptor potential channel 4 (Mus musculus, UniProt Q9QUQ5); test: mouse TRPC4 channel activators, dose response, cell-based, HEK293 TRPC4/mu-opioid, Fluo-4 calcium (AID 434937); type: functional
T3 sequence (Q9QUQ5 whole entry): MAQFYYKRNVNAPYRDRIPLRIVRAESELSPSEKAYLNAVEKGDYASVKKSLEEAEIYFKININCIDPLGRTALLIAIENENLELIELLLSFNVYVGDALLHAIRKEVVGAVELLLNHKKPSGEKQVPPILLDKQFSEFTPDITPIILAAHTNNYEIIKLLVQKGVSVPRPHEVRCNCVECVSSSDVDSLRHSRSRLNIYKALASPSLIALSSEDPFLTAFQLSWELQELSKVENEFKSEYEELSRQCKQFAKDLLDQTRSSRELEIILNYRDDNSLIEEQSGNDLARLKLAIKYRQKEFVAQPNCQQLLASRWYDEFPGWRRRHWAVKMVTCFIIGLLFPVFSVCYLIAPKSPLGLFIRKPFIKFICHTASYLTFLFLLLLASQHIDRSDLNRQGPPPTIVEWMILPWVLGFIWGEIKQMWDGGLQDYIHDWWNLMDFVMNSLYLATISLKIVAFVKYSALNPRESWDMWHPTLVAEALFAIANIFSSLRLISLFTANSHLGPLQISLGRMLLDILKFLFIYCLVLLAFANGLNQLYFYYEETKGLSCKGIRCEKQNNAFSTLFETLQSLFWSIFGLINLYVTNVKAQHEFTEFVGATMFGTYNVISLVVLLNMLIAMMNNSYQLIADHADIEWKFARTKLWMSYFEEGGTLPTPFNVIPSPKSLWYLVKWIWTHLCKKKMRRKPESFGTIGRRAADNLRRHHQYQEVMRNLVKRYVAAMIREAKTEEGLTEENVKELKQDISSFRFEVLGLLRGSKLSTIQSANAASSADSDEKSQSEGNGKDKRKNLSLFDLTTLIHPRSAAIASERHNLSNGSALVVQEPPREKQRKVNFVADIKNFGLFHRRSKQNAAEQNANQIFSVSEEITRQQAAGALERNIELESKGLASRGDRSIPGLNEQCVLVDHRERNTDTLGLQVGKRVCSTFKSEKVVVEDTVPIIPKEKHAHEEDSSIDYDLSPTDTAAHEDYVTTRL

[6] = Vero E6 cell cytotoxicity, dose response, cytotoxicity control for non-replicating M. tuberculosis project, secondary assay (AID 492998); type: functional, VeroE6; conditions: Vero C1008
[7] = THP-1 cell cytotoxicity, dose response, cytotoxicity control for non-replicating M. tuberculosis project (AID 489025); type: functional
[8] = target: T4, Protein RecA (Mycobacterium tuberculosis, UniProt P9WHJ3); test: Fluorescence Cell-Free Homogeneous Dose Retest to Identify Inhibitors of RecA-Intein Splicing Activity. [Related pubchem assays (depositor defined):AID2097, AID2223, AID489010, AID492950]; type: functional
T4 sequence (P9WHJ3 whole entry): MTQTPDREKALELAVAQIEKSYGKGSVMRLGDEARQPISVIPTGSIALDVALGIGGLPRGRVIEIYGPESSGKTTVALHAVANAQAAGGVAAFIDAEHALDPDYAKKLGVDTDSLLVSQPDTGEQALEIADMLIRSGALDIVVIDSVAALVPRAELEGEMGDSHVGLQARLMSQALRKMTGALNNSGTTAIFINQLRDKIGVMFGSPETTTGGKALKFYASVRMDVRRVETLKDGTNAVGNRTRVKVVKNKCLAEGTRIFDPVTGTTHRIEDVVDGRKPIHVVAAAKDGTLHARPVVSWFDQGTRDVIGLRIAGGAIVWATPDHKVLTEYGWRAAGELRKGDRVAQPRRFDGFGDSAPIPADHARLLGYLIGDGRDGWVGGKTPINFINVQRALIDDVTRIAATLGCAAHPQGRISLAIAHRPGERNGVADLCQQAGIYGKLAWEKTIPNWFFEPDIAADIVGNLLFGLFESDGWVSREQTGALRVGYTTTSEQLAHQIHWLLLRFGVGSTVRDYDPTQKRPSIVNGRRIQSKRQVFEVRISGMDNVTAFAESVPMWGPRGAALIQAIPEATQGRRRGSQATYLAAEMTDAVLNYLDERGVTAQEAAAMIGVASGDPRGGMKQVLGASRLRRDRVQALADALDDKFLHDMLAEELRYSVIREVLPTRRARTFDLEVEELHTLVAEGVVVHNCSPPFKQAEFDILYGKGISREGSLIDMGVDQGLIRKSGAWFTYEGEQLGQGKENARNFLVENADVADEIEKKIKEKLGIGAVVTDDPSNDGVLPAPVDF

[9] = target: Peroxisome proliferator-activated receptor gamma/Nuclear receptor coactivator 2 (Homo sapiens, UniProt P37231); test: (§1) TR-FRET dose response biochemical High Throughput Screening assay for agonists of the steroid receptor coactivator 2 (SRC-2) recruitment by the peroxisome proliferator-activated receptor gamma (PPAR gamma): non-selective agonists. [Related pubchem assays: 1297, 1032 ]; type: functional
[10] = target: Peroxisome proliferator-activated receptor gamma/Nuclear receptor coactivator 1 (Homo sapiens, UniProt P37231); test: as §1, with “1 (SRC-1)” for “2 (SRC-2)”, “assays (depositor defined):AID1300, AID1808, AID504735, AID631]” for “assays: 1297, 1032 ]”; type: protein assay
[11] = target: Peroxisome proliferator-activated receptor gamma/Nuclear receptor coactivator 3 (Homo sapiens, UniProt P37231); test: as §1, with “3 (SRC-3)” for “2 (SRC-2)”, “1301 (Confirmation screen.), 1048 (Primary screen.)]” for “1297, 1032 ]”; type: functional
[12] = cells; type: functional
[13] = target: Luciferin 4-monooxygenase (Photinus pyralis, UniProt P08659); test: firefly luciferase enzyme inhibitors, dose response, biochemical, luminescence (AID 1891)
[14] = Luminescence Cell-Based Dose Confirmation HTS to Identify Inhibitors of Platelet Dense Granule Release. [Related pubchem assays: 1663 (Primary HTS), 1678 (Summary of Project)]; type: functional

Voltage-dependent T-type calcium channel subunit alpha-1H, sequence (O95180 whole entry): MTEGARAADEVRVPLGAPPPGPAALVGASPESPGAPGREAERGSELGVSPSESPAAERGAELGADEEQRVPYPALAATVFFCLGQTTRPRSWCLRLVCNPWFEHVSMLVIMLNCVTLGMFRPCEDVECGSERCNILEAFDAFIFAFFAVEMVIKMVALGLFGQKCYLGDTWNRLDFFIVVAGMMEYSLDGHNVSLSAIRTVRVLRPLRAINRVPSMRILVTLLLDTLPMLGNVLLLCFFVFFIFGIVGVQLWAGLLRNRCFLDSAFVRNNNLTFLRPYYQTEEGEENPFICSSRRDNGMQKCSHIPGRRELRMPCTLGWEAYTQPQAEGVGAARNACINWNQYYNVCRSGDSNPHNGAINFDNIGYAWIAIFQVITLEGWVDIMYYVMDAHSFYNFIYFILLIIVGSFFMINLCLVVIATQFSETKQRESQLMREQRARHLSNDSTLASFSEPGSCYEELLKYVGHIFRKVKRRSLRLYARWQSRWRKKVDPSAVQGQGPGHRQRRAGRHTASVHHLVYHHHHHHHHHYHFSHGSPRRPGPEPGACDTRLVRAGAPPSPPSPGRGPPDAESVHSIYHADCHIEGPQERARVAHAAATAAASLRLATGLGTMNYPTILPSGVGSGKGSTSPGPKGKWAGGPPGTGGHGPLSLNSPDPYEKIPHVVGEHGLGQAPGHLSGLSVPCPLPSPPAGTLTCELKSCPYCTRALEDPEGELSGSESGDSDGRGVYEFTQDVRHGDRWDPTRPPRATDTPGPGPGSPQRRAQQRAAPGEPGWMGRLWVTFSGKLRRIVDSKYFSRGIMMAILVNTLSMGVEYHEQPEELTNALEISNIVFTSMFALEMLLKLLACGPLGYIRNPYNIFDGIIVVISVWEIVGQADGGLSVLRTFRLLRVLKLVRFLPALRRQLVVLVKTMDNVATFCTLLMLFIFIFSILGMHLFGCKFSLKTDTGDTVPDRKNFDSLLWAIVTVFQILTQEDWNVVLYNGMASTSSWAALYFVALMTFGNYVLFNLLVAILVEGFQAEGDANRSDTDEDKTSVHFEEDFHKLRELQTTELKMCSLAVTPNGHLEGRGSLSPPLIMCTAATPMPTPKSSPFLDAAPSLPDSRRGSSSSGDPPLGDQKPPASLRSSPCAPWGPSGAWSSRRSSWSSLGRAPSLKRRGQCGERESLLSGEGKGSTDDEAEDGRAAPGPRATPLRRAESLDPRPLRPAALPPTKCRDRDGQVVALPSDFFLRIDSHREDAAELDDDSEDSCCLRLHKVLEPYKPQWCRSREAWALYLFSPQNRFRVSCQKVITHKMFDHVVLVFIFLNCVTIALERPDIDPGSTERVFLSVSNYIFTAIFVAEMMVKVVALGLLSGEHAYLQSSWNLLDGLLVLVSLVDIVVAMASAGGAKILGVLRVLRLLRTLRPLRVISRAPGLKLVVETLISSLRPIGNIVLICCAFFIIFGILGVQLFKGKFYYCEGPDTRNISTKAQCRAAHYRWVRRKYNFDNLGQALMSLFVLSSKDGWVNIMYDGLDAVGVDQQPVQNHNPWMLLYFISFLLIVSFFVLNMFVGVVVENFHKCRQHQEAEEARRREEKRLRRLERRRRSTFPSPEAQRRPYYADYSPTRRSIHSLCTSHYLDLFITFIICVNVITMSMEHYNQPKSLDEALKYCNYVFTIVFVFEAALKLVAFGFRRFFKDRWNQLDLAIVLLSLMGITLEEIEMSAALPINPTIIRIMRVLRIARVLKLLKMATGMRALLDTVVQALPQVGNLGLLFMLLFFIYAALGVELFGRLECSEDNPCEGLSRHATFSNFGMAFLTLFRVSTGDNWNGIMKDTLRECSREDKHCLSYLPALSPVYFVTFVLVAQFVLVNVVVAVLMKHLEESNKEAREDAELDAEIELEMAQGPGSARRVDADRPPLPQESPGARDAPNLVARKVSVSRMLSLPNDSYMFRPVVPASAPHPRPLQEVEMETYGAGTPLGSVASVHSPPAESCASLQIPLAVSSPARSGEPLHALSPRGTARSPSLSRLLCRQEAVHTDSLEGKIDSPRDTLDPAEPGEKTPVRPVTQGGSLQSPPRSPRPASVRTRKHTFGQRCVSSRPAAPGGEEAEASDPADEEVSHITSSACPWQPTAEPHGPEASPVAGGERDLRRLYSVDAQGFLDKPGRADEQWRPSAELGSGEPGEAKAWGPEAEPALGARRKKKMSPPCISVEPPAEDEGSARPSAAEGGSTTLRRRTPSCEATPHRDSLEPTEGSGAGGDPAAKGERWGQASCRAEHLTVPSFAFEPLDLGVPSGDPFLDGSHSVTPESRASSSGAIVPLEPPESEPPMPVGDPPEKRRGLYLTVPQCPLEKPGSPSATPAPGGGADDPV
Peroxisome proliferator-activated receptor gamma/Nuclear receptor coactivator 1, sequence (P37231 whole entry): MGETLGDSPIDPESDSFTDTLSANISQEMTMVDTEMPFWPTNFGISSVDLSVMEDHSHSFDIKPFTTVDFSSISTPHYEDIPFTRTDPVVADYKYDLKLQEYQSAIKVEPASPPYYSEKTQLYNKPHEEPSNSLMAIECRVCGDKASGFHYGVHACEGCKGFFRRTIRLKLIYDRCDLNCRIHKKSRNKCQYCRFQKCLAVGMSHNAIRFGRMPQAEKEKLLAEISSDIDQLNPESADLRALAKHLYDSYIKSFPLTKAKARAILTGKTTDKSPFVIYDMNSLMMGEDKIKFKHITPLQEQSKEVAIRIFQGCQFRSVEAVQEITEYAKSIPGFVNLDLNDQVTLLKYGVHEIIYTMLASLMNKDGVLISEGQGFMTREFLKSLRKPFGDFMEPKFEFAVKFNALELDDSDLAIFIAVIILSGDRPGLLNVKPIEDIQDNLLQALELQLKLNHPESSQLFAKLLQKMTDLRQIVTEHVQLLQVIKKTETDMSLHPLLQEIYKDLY
Peroxisome proliferator-activated receptor gamma/Nuclear receptor coactivator 1, sequence (Q15788 whole entry, further chain): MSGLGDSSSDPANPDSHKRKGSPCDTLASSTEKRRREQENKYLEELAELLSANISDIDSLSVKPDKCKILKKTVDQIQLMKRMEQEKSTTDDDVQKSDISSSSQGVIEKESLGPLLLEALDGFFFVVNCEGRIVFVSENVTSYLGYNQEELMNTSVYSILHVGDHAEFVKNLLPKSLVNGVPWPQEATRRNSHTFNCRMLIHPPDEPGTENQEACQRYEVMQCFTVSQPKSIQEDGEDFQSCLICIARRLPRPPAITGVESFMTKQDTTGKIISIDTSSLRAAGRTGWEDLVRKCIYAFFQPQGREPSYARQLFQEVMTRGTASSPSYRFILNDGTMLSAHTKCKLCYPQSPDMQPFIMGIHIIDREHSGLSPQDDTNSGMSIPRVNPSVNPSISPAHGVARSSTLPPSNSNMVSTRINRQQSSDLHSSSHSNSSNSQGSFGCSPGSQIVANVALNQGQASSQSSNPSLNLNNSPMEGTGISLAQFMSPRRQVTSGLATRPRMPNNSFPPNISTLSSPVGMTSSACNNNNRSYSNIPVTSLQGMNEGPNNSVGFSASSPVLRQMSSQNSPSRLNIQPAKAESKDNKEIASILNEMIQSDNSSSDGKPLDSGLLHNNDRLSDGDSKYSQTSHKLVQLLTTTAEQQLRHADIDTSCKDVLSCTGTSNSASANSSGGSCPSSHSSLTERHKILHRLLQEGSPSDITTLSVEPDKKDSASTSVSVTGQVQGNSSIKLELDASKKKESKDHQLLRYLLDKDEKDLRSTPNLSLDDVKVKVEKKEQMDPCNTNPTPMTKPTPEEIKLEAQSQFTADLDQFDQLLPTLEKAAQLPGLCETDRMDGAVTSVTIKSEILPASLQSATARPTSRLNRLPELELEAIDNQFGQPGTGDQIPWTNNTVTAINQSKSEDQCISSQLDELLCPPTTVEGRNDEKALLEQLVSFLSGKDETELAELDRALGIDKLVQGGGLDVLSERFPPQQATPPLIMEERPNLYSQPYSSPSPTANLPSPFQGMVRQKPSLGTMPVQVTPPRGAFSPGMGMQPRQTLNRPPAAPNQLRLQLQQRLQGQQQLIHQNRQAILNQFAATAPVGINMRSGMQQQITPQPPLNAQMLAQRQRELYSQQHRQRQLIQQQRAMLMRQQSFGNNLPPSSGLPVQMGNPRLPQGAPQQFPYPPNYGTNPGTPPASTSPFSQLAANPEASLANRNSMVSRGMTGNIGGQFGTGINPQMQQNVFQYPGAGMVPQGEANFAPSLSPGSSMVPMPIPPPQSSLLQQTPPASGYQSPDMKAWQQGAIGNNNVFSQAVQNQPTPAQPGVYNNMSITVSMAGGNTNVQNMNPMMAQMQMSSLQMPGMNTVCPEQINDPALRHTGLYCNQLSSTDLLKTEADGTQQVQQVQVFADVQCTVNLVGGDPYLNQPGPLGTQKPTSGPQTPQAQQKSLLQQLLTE
Luciferin 4-monooxygenase, sequence (P08659 whole entry): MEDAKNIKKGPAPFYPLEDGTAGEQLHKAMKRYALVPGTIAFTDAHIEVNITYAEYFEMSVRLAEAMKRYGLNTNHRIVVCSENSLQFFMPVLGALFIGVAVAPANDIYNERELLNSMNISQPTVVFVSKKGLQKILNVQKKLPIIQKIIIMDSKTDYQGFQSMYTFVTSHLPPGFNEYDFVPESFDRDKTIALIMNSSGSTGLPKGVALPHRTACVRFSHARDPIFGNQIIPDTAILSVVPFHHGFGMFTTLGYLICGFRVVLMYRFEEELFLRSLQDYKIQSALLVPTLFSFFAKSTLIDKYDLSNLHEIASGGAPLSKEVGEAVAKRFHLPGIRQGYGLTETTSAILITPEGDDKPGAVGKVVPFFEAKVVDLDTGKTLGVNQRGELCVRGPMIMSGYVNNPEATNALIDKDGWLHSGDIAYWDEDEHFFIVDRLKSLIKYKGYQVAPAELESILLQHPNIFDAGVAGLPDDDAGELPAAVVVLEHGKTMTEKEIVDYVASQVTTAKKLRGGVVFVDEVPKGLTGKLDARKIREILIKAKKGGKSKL

In the case of `CCC(C)(C)NC(=O)CN(Cc1ccc2c(c1)OCO2)C(=O)CCC(=O)Nc1nccs1`, the IC50 [1] was 87.6 µM (active).

With `O=C(CN1C(=O)C2CCCCN2C(=O)c2ccccc21)N1CCCc2ccccc21` (centres undefined) the IC50 [1] was 103 µM (active).

In the case of `Cc1ccccc1NC(=O)CCl`, the IC50 [2] was > 50 µM (not active).

For `CCc1cc2cc3c(cc2nc1SCC(=O)Nc1cc(OC)c(OC)cc1C(=O)O)OCO3`, the IC50 [3] was < 1 µM (active) and the IC50 [1] was 76 µM (active).

For `Cc1cccc(N2CCN(C(=O)C(Cc3ccccc3)n3cccc3)CC2)c1C` (centres undefined), the EC50 [4] was 8.08 µM (active).

With `O=C(CNS(=O)(=O)c1ccc2ccccc2c1)NCCc1ccccn1` the EC50 [5] was 9.44 µM (active).

With `O=[N+]([O-])c1cncc([N+](=O)[O-])c1Nc1cccc(O)c1` the CC50 [6] was 15.7 µM (active), the CC50 [7] was 27 µM (active) and the EC50 [8] was 3.28 µM (active).

In the case of `O=C(Nc1ccccc1C(F)(F)F)c1ccc(CN2CCC(Cc3ccccc3)CC2)cc1`, the EC50 [4] was 0.227 µM (active).

With `COc1ccc(C)c2sc(NC(=O)CCS(=O)(=O)c3ccccc3)nc12` the CC50 [6] was > 20 µM (active) and the CC50 [7] was 23.1 µM (active).

In the case of `CCn1cc(C(=O)NCc2ccc3c(c2)OCO3)c(=O)c2cc(S(=O)(=O)N3CCOCC3)ccc21`, the IC50 [2] was 0.158 µM (active).

With `COc1cc(OC)cc(C(=O)NC2CCCN(Cc3ccc(Cl)cc3)C2)c1` (centres undefined) the EC50 [5] was 5.96 µM (active).

With `CCn1c(=O)cc(SCC(=O)N2CCN(c3ccccn3)CC2)c2ccccc21` the EC50 [9] was > 79.4 µM (not active), the EC50 [10] was > 79.4 µM (inactive) and the EC50 [11] was > 79.4 µM (not active).

With `Cc1ccc(Cn2c(SCCN3CCCCC3)nc3c2c(=O)n(C)c(=O)n3C)cc1` the EC50 [5] was 11.9 µM (active).

With `COc1cc(NC(=O)C2COc3ccccc3O2)c(OC)cc1Cl` (centres undefined) the EC50 [4] was 8.09 µM (active).

For `CCc1cc2cc(C(=O)Nc3ccc(F)cc3)sc2s1`, the EC50 [9] was 57.1 µM (not active), the EC50 [10] was > 79.4 µM (inactive) and the EC50 [11] was > 79.4 µM (not active).

With `Cc1ccc(-c2ccc(/C=N/NC(=O)CN3CCOCC3)o2)cc1[N+](=O)[O-]` the IC50 [12] was 22.5 µM (active) and the CC50 [7] was > 40 µM (active).

In the case of `Oc1ccc(-c2nc3ccccc3s2)cc1`, the IC50 [2] was > 50 µM (not active), the EC50 [13] was 1.26 µM (active) and the EC50 [14] was 47.5 µM (active).

For `Cn1c(N2CCNCC2)nc2ccccc21`, the EC50 [5] was 0.149 µM (active).

Source: ChEMBL document CHEMBL1201862, “PubChem BioAssay data set” (2004)
